The values that follow come from patent publication US12624023B2, “Sulfonylurea derivatives and uses thereof” (NodThera Limited, priority 2019, dated 2026).

The subject of assay [1] is IL-1β release upon NLRP3 activation in human whole blood. Nature of the assay: Whole blood (WB) assay (IL-1β release, LPS priming + ATP stimulation, HTRF). Type of assay: cell-based. The settings on record: heparin, diluted 9:5 with media, LPS 1 μg/ml 3 h, compound 30 min, ATP 5 mM 1 h, IL-1β by HTRF. On the procedure:
The compounds of the present disclosure were tested for their inhibitory activity against IL-1β release upon NLRP3 activation in human whole blood.
Whole blood was drawn from single healthy donors and treated with sodium heparin anticoagulant. Blood was diluted with cell culture media at a 9:5 ratio, seeded in a 96-well plate and incubated for 3 h with lipopolysaccharide (LPS, 1 μg/ml final concentration diluted 1000× from a 1 mg/ml stock solution). The compounds of the present disclosure were added (a single compound concentration per well) and the blood was incubated for 30 min. Next, the blood was stimulated with ATP (5 mM final concentration diluted 20× from a 100 mM stock solution) for 1 h and the cell culture media from the wells were collected for further analysis.
The release of IL-1β into the media was determined by quantitative detection of IL-1β in the media using HTRF®, CisBio cat. No. 62HIL1BPEH. Briefly, cell culture supernatant were diluted as appropriate to bring IL-1β levels within the HTRF® detection range ([…]) and subsequently dispensed into the assay plate containing antibodies labelled with the HTRF® donor and acceptor. A microplate spectrophotometer (BMG) was used to detect signals at 655 nm and 620 nm.

Assay [2] deals with IL-1β release upon NLRP3 activation in peripheral blood mononuclear cells (PBMC). Kind of assay: PBMC IC50 determination assay (IL-1β release, LPS priming + ATP stimulation, HTRF). Type of assay: cell-based. The settings on record: PBMC from buffy coats; LPS 1 μg/ml 3 h, compound 30 min, ATP 5 mM 1 h; IL-1β by HTRF. On the procedure: The compounds of the present disclosure were tested for their inhibitory activity against IL-1β release upon NLRP3 activation in peripheral blood mononuclear cells (PBMC).
PBMC were isolated from buffy coats by density gradient centrifugation on Histopaque-1077 (Sigma, cat no. 10771). Isolated cells were seeded into the wells (280,000 cells/well) of a 96-well plate and incubated for 3 h with lipopolysaccharide (LPS, 1 μg/ml diluted 1000× from a 1 mg/ml stock solution). The compounds of the present disclosure were added (a single compound per well) and the cells were incubated for 30 min. Next, the cells were stimulated with ATP (5 mM final concentration diluted 20× from a 100 mM stock solution) for 1 h and the cell culture media from the wells were collected for further analysis.
The release of IL-1β into the media was determined by quantitative detection of IL-1β in the media using HTRF®, CisBio cat. No. 62HIL1BPEH. Briefly, cell culture supernatant were dispensed directly into the assay plate containing antibodies labelled with the HTRF® donor and acceptor. A microplate spectrophotometer (BMG) was used to detect signals at 655 nm and 620 nm. The detection range of IL-1β HTRF® was […].

The structures appear in SMILES notation. Where only a bound is given, the exact number is not on record here.

A word on the IC50: it is the concentration that gives 50% inhibition. As to `Cc1csc(C)c1NC(=O)NS(=O)(=O)N(c1cnn(C)c1)C1CCOCC1` [Compound 1, 3-(2,4-Dimethylthiophen-3-yl)-1-[(1-methyl-1H-pyrazol-4-yl)(oxan-4-yl)-sulfamoyl]urea], the IC50 in assay [1] lay in the range of 3 to 10 µM; in assay [2], 1 to 5 µM.

For the compound `Cc1cc(NC(=O)NS(=O)(=O)N(c2cnn(C)c2)C2CCOCC2)c(C)s1` [Compound 2, 3-(2,5-Dimethylthiophen-3-yl)-1-[(1-methyl-1H-pyrazol-4-yl)(oxan-4-yl)sulfamoyl]urea], the IC50 in assay [1] is 3 to 10 µM; in assay [2], 0.5 to 1 µM.

For the compound `Cc1sc2ccccc2c1NC(=O)NS(=O)(=O)N(c1cnn(C)c1)C1CCOCC1` [Compound 3, 3-(2-Methyl-1-benzothiophen-3-yl)-1-[(1-methyl-1H-pyrazol-4-yl)(oxan-4-yl)sulfamoyl]urea], the results for the IC50 in assay [1] and in assay [2] were greater than 20 µM and 1 to 5 µM, respectively.

Take `CCc1cc(NC(=O)NS(=O)(=O)N(c2cnn(C)c2)C2CCOCC2)c(CC)s1` [Compound 4, 3-(2,5-Diethylthiophen-3-yl)-1-[(1-methyl-1H-pyrazol-4-yl)(oxan-4-yl)sulfamoyl]urea]: the IC50 in assay [1] is 10 to 20 µM; in assay [2], 1 to 5 µM.

As for `Cn1cc(N(C2CCOCC2)S(=O)(=O)NC(=O)Nc2cc(Cl)sc2Cl)cn1` [Compound 5, 3-(2,5-Dichlorothiophen-3-yl)-1-[(1-methyl-1H-pyrazol-4-yl)(oxan-4-yl)sulfamoyl]urea], the IC50 in assay [1] was greater than 20 µM; in assay [2], 5 to 10 µM.

As for `CC(C)c1cc(NC(=O)NS(=O)(=O)N(c2cnn(C)c2)C2CCOCC2)c(C(C)C)s1` [Compound 6, 3-[2,5-Bis(propan-2-yl)thiophen-3-yl]-1-[(1-methyl-1H-pyrazol-4-yl)(oxan-4-yl)sulfamoyl]urea], the IC50 in assay [1] was greater than 20 µM; in assay [2], 0.5 to 1 µM.

For the compound `CCc1csc(CC)c1NC(=O)NS(=O)(=O)N(c1cnn(C)c1)C1CCOCC1` [Compound 7, 3-(2,4-Diethylthiophen-3-yl)-1-[(1-methyl-1H-pyrazol-4-yl)(oxan-4-yl)sulfamoyl]urea], the IC50 in assay [1] is 10 to 20 µM; in assay [2], 1 to 5 µM.

As for `Cc1cc(NC(=O)NS(=O)(=O)N(c2cnn(C)c2)C2CCCN(C)C2)c(C)s1` (stereo not drawn) [Compound 8, 3-(2,5-Dimethylthiophen-3-yl)-1-[(1-methyl-1H-pyrazol-4-yl)(1-methyl-piperidin-3-yl)sulfamoyl]urea], the values for the IC50 in assay [1] and in assay [2] were 1 to 3 µM and 1 to 5 µM, respectively.

With `Cc1csc(C)c1NC(=O)NS(=O)(=O)N(c1cnn(C)c1)C1CCCN(C)C1` (stereo not drawn) [Compound 9, 3-(2,4-Dimethylthiophen-3-yl)-1-[(1-methyl-1H-pyrazol-4-yl)(1-methyl-piperidin-3-yl)sulfamoyl]urea], the IC50 in assay [1] lay in the range of 3 to 10 µM; in assay [2] it was 1 to 5 µM.

Turning to `Cc1cc(C)c(NC(=O)NS(=O)(=O)N(c2cnn(C)c2)C2CCCN(C)C2)s1` (stereo not drawn) [Compound 10, 3-(3,5-Dimethylthiophen-2-yl)-1-[(1-methyl-1H-pyrazol-4-yl)(1-methyl-piperidin-3-yl)sulfamoyl]urea], the half-maximal inhibitory concentration (IC50) in assay [1] lay within 10 to 20 µM; in assay [2], 1 to 5 µM.

Regarding `CC(C)c1cc(NC(=O)NS(=O)(=O)N(c2cnn(C)c2)C2CCCN(C)C2)c(C(C)C)s1` (stereo not drawn) [Compound 11, 3-[2,5-Bis(propan-2-yl)thiophen-3-yl]-1-[(1-methyl-1H-pyrazol-4-yl)(1-methyl-piperidin-3-yl)sulfamoyl]urea], the values for the IC50 in assay [1] and in assay [2] were less than 1 µM and less than 0.1 µM, respectively.

`Cc1sc2ccccc2c1NC(=O)NS(=O)(=O)N(c1cnn(C)c1)C1CCCN(C)C1` (stereo not drawn) [Compound 12, 3-(2-Methyl-1-benzothiophen-3-yl)-1-[(1-methyl-1H-pyrazol-4-yl)(1-methyl-piperidin-3-yl)sulfamoyl]urea]: the IC50 was 1 to 3 µM in assay [1] and 0.5 to 1 µM in assay [2].

In the case of `CCc1cc(NC(=O)NS(=O)(=O)N(c2cnn(C)c2)C2CCCN(C)C2)c(CC)s1` (stereo not drawn) [Compound 13, 3-(2,5-Diethylthiophen-3-yl)-1-[(1-methyl-1H-pyrazol-4-yl)(1-methylpiperidin-3-yl)sulfamoyl]urea], the IC50 in assay [1] is less than 1 µM; in assay [2] it was less than 0.1 µM.

`CCc1csc(CC)c1NC(=O)NS(=O)(=O)N(c1cnn(C)c1)C1CCCN(C)C1` (stereo not drawn) [Compound 14, 3-(2,4-Diethylthiophen-3-yl)-1-[(1-methyl-1H-pyrazol-4-yl)(1-methylpiperidin-3-yl)sulfamoyl]urea]: the IC50 was 1 to 3 µM in assay [1] and less than 0.1 µM in assay [2].

`Cc1sc(C)c(NC(=O)NS(=O)(=O)N(c2cnn(C)c2)C2CCCN(C)C2)c1C` (stereo not drawn) [Compound 15, 1-[(1-Methyl-1H-pyrazol-4-yl)(1-methylpiperidin-3-yl)sulfamoyl]-3-(2,4,5-trimethylthiophen-3-yl)urea]: the IC50 in assay [1] was greater than 20 µM; in assay [2] it was 0.5 to 1 µM.

Take `CC(C)c1csc(C(C)C)c1NC(=O)NS(=O)(=O)N(c1cnn(C)c1)C1CCCN(C)C1` (stereo not drawn) [Compound 16, 3-[2,4-Bis(propan-2-yl)thiophen-3-yl]-1-[(1-methyl-1H-pyrazol-4-yl)(1-methyl-piperidin-3-yl)sulfamoyl]urea]: the figures for the IC50 in assay [1] and in assay [2] were 1 to 3 µM and 0.1 to 0.5 µM, respectively.

Regarding `Cc1csc(NC(=O)NS(=O)(=O)N(c2cnn(C)c2)C2CCCN(C)C2)c1C` (stereo not drawn) [Compound 17, 3-(3,4-Dimethylthiophen-2-yl)-1-[(1-methyl-1H-pyrazol-4-yl)(1-methyl-piperidin-3-yl)sulfamoyl]urea], the IC50 in assay [2] lay within 5 to 10 µM.

Regarding `CC(C)c1cc(NC(=O)NS(=O)(=O)N(CCN(C)C)c2cnn(C)c2)c(C(C)C)s1` [Compound 18, 3-[2,5-Bis(propan-2-yl)thiophen-3-yl]-1-{[2-(dimethylamino)ethyl](1-methyl-1H-pyrazol-4-yl)sulfamoyl}urea], the IC50 in assay [1] lay in the range of 1 to 3 µM; in assay [2], 0.1 to 0.5 µM.

With `CCc1cc(NC(=O)NS(=O)(=O)N(CCN(C)C)c2cnn(C)c2)c(CC)s1` [Compound 19, 3-(2,5-Diethylthiophen-3-yl)-1-{[2-(dimethylamino)ethyl](1-methyl-1H-pyrazol-4-yl)sulfamoyl}urea], the IC50 was in the range of 1 to 3 µM in assay [1] and 0.1 to 0.5 µM in assay [2].

As to `CCc1cc(NC(=O)NS(=O)(=O)N(c2cnn(C)c2)C2CCCN(C)C2)c(CC)o1` (stereo not drawn) [Compound 28, 3-(2,5-Diethylfuran-3-yl)-1-[(1-methyl-1H-pyrazol-4-yl)(1-methylpiperidin-3-yl)sulfamoyl]urea], the IC50 in assay [1] was in the range of 1 to 3 µM; in assay [2], 0.1 to 0.5 µM.

With `CCc1nc(NC(=O)NS(=O)(=O)N(c2cnn(C)c2)C2CCCN(C)C2)c(CC)s1` (stereo not drawn) [Compound 31, 3-(2,5-Diethyl-1,3-thiazol-4-yl)-1-[(1-methyl-1H-pyrazol-4-yl)(1-methyl-piperidin-3-yl)sulfamoyl]urea], in assay [2], the IC50 lay within 5 to 10 µM.

Regarding `CCc1cc(NC(=O)NS(=O)(=O)N(C[C@@H]2C[C@@H](F)CN2C)c2cnn(C(C)C)c2)c(CC)o1` [Compound 63, 3-(2,5-Diethylfuran-3-yl)-1-({[(2S,4R)-4-fluoro-1-methylpyrrolidin-2-yl]methyl}[1-(propan-2-yl)-1H-pyrazol-4-yl]sulfamoyl)urea], in assay [2], the IC50 lay in the range of 1 to 5 µM.

As for `CCc1cc(NC(=O)NS(=O)(=O)N(C2CCOCC2)C2CCCN(C)C2)c(CC)s1` (stereo not drawn) [Compound 68, 3-(2,5-Diethylthiophen-3-yl)-1-[(1-methylpiperidin-3-yl)(oxan-4-yl)sulfamoyl]-urea], the IC50 in assay [2] lay in the range of 5 to 10 µM.

For `CCc1cc(NC(=O)NS(=O)(=O)N(CCN(C)C)c2cnn(C)c2)c(CC)o1` [Compound 72, 3-(2,5-Diethylfuran-3-yl)-1-{[2-(dimethylamino)ethyl](1-methyl-1H-pyrazol-4-yl)sulfamoyl}urea], the IC50 in assay [2] lay within 1 to 5 µM.

In the case of `CCc1cc(NC(=O)NS(=O)(=O)N(CC2CCCO2)c2cnn(C)c2)c(CC)o1` (stereo not drawn) [Compound 74, 1-(2,5-Diethylfuran-3-yl)-3-[(1-methyl-1H-pyrazol-4-yl)[(oxolan-2-yl)methyl]-sulfamoyl]urea], in assay [2], the IC50 lay within 1 to 5 µM.

As to `Cc1cc(NC(=O)NS(=O)(=O)N(c2cnn(C3CC3)c2)[C@H]2CCCN(C)C2)c(C2CC2)s1` [Compound 105, 1-[(1-Cyclopropyl-1H-pyrazol-4-yl)[(3S)-1-methylpiperidin-3-yl]sulfamoyl]-3-(2-cyclopropyl-5-methylthiophen-3-yl)urea], the IC50 in assay [2] fell in the range of 0.1 to 0.5 µM.
